These results are taken from patent US20170197979A1, “BENZOTHIADIAZOLAMINES” (BAYER PHARMA AKTIENGESELLSCHAFT, priority 2014, published 2017).

What is called IC50 is the midpoint of a concentration-inhibition curve.

In this test the target is T1, human full-length MKNK1 (Homo sapiens, UniProt Q9BUB5, T385D).
T1 construct: GST (N); purchased Carna Biosciences 02-145; host or cells: insect cells (baculovirus expression system)
T1 sequence (Q9BUB5 1-424 isoform Q9BUB5-2 T344D): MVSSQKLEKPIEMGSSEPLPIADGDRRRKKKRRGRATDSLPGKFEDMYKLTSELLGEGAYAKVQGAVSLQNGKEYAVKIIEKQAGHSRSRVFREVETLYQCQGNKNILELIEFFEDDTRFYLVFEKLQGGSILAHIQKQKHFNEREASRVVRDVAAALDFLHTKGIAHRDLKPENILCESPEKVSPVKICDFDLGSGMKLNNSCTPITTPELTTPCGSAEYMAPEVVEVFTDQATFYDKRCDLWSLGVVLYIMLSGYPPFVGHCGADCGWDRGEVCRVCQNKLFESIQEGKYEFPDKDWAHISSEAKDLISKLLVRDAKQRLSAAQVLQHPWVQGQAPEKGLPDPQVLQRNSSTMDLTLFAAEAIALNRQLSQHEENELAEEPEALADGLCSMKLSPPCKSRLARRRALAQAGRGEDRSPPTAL
Briefly: MKNK1 kinase high ATP assay (TR-FRET). It counts as biochemical. Conditions: TR-FRET, high ATP (2 mM final), 15 min preincubation with enzyme, GST-MKNK1 (T344D); read-out: MKNK1 IC50. Here is the method:
MKNK1 Kinase High ATP Assay
MKNK1-inhibitory activity at high ATP of compounds of the present invention after their preincubation with MKNK1 was quantified employing the TR-FRET-based MKNK1 high ATP assay as described in the following paragraphs.
A recombinant fusion protein of Glutathione-S-Transferase (GST, N-terminally) and human full-length MKNK1 (amino acids 1-424 and T344D of accession number BAA 19885.1), expressed in insect cells using baculovirus expression system and purified via glutathione sepharose affinity chromatography, was purchased from Carna Biosciences (product no 02-145) and used as enzyme. As substrate for the kinase reaction the biotinylated peptide biotin-Ahx-IKKRKLTRRKSLKG (C-terminus in amide form) was used, which can be purchased e.g. from the company Biosyntan (Berlin-Buch, Germany).
For the assay 50 nL of a 100 fold concentrated solution of the test compound in DMSO was pipetted into a black low volume 384 well microtiter plate (Greiner Bio-One, Frickenhausen, Germany), 2 μL of a solution of MKNK1 in aqueous assay buffer [50 mM HEPES pH 7.5, 5 mM MgCl2, 1.0 mM dithiothreitol, 0.005% (v/v) Nonidet-P40 (Sigma)] was added and the mixture was incubated for 15 min at 22° C. to allow pre-binding of the test compounds to the enzyme before the start of the kinase reaction. Then the kinase reaction was started by the addition of 3 μL of a solution of adenosine-tri-phosphate (ATP, 3.3 mM=>final conc. in the 5 μL assay volume is 2 mM) and substrate (0.1 μM=>final conc. in the 5 μL assay volume is 0.06 μM) in assay buffer and the resulting mixture was incubated for a reaction time of 30 min at 22° C. The concentration of MKNK1 was adjusted depending of the activity of the enzyme lot and was chosen appropriate to have the assay in the linear range, typical concentrations were in the range of 0.003 μg/mL. The reaction was stopped by the addition of 5 μL of a solution of TR-FRET detection reagents (5 nM streptavidine-XL665 [Cisbio Bioassays, Codolet, France] and 1 nM anti-ribosomal protein S6 (pSer236)-antibody from Invitrogen [#44921G] and 1 nM LANCE EU-W1024 labeled ProteinG [Perkin-Elmer, product no. AD0071]) in an aqueous EDTA-solution (100 mM EDTA, 0.1% (w/v) bovine serum albumin in 50 mM HEPES pH 7.5).
The resulting mixture was incubated for 1 h at 22° C. to allow the formation of complex between the phosphorylated biotinylated peptide and the detection reagents. Subsequently the amount of phosphorylated substrate was evaluated by measurement of the resonance energy transfer from the Eu-chelate to the streptavidine-XL. Therefore, the fluorescence emissions at 620 nm and 665 nm after excitation at 350 nm were measured in a TR-FRET reader, e.g. a Rubystar (BMG Labtechnologies, Offenburg, Germany) or a Viewlux (Perkin-Elmer). The ratio of the emissions at 665 nm and at […] was taken as the measure for the amount of phosphorylated substrate. The data were normalised (enzyme reaction without inhibitor=0% inhibition, all other assay components but no enzyme=100% inhibition).
Background: TR-FRET usually uses a lanthanide donor and a delayed reading to cut background.
Consider `CN1CCN(C(=O)[C@H]2CCc3c(sc4ncnc(Nc5ccc6nnsc6c5)c34)C2)CC1` [Example 34, [(7S)-4-(1,2,3-Benzothiadiazol-6-ylamino)-5,6,7,8-tetrahydro[1]benzothieno[2,3-d]pyrimidin-7-yl](4-methylpiperazin-1-yl)methanone], for which the IC50 came out at 13 nM.

On to `COc1cc2nnsc2cc1Nc1ncnc2sc3c(c12)CC[C@H](C(=O)N(C)C)C3` [Example 35, (7S)-4-[(5-Methoxy-1,2,3-benzothiadiazol-6-yl)amino]-N,N-dimethyl-5,6,7,8-tetrahydro[1]benzothieno[2,3-d]pyrimidine-7-carboxamide], for which the IC50 worked out at 1.3 nM. To `COc1cc2nnsc2cc1Nc1ncnc2sc3c(c12)CC[C@H](C(=O)N(C)CC(C)(C)O)C3` [Example 36, (7S)—N-(2-Hydroxy-2-methylpropyl)-4-[(5-methoxy-1,2,3-benzothiadiazol-6-yl)amino]-N-methyl-5,6,7,8-tetrahydro[1]benzothieno[2,3-d]pyrimidine-7-carboxamide] belongs 0.8 nM; to `COc1cc2nnsc2cc1Nc1ncnc2sc3c(c12)CC[C@H](C(=O)N(C)C(C)C)C3` [Example 37, (7S)-4-[(5-Methoxy-1,2,3-benzothiadiazol-6-yl)amino]-N-methyl-N-(propan-2-yl)-5,6,7,8-tetrahydro[1]benzothieno[2,3-d]pyrimidine-7-carboxamide], 1.2 nM; to `CCN(CCO)C(=O)[C@H]1CCc2c(sc3ncnc(Nc4cc5snnc5cc4OC)c23)C1` [Example 38, (7S)—N-Ethyl-N-(2-hydroxyethyl)-4-[(5-methoxy-1,2,3-benzothiadiazol-6-yl)amino]-5,6,7,8-tetrahydro[1]benzothieno[2,3-d]pyrimidine-7-carboxamide], 1.1 nM. To `COCCN(C)C(=O)[C@H]1CCc2c(sc3ncnc(Nc4cc5snnc5cc4OC)c23)C1` [Example 39, (7S)-4-[(5-Methoxy-1,2,3-benzothiadiazol-6-yl)amino]-N-(2-methoxyethyl)-N-methyl-5,6,7,8-tetrahydro[1]benzothieno[2,3-d]pyrimidine-7-carboxamide] belongs 0.6 nM. To `COc1cc2nnsc2cc1Nc1ncnc2sc3c(c12)CC[C@H](C(=O)N(C)CCNC(=O)OC(C)(C)C)C3` [Example 40, tert-Butyl {2-[({(7S)-4-[(5-methoxy-1,2,3-benzothiadiazol-6-yl)amino]-5,6,7,8-tetrahydro[1]benzothieno[2,3-d]pyrimidin-7-yl}carbonyl)(methyl)amino]ethyl}carbamate] belongs 0.8 nM. As for `COc1cc2nnsc2cc1Nc1ncnc2sc3c(c12)CC[C@H](C(=O)N1CC(N(C)C)C1)C3` [Example 41, [3-(Dimethylamino)azetidin-1-yl]{(7S)-4-[(5-methoxy-1,2,3-benzothiadiazol-6-yl)amino]-5,6,7,8-tetrahydro[1]benzothieno[2,3-d]pyrimidin-7-yl}methanone], the IC50 was found to be 0.6 nM. On to `COc1cc2nnsc2cc1Nc1ncnc2sc3c(c12)CC[C@H](C(=O)N(C)CC(=O)N(C)C)C3` [Example 42, (7S)—N-[2-(Dimethylamino)-2-oxoethyl]-4-[(5-methoxy-1,2,3-benzothiadiazol-6-yl)amino]-N-methyl-5,6,7,8-tetrahydro[1]benzothieno[2,3-d]pyrimidine-7-carboxamide], for which the IC50 is 0.8 nM. To `COc1cc2nnsc2cc1Nc1ncnc2sc3c(c12)CC[C@H](C(=O)N(C)CCCN(C)C)C3` [Example 43, (7S)—N-[3-(Dimethylamino)propyl]-4-[(5-methoxy-1,2,3-benzothiadiazol-6-yl)amino]-N-methyl-5,6,7,8-tetrahydro[1]benzothieno[2,3-d]pyrimidine-7-carboxamide] belongs 1.7 nM.

As for `COc1cc2nnsc2cc1Nc1ncnc2sc3c(c12)CC[C@H](C(=O)N1CC(C#N)C1)C3` [Example 44, 1-({(7S)-4-[(5-Methoxy-1,2,3-benzothiadiazol-6-yl)amino]-5,6,7,8-tetrahydro[1]benzothieno[2,3-d]pyrimidin-7-yl}carbonyl)azetidine-3-carbonitrile], the IC50 was 1.7 nM. Take `COc1cc2nnsc2cc1Nc1ncnc2sc3c(c12)CC[C@H](C(=O)N1CC(C)(O)C1)C3` [Example 45, (3-Hydroxy-3-methylazetidin-1-yl){(7S)-4-[(5-methoxy-1,2,3-benzothiadiazol-6-yl)amino]-5,6,7,8-tetrahydro[1]benzothieno[2,3-d]pyrimidin-7-yl}methanone]: the IC50 was 1.5 nM. For `COc1cc2nnsc2cc1Nc1ncnc2sc3c(c12)CC[C@H](C(=O)N1CCC1)C3` [Example 46, Azetidin-1-yl{(7S)-4-[(5-methoxy-1,2,3-benzothiadiazol-6-yl)amino]-5,6,7,8-tetrahydro[1]benzothieno[2,3-d]pyrimidin-7-yl}methanone], the IC50 was 182 nM.

With `COc1cc2nnsc2cc1Nc1ncnc2sc3c(c12)CC[C@H](C(=O)N1CCC(N(C)C)CC1)C3` [Example 47, [4-(Dimethylamino)piperidin-1-yl]{(7S)-4-[(5-methoxy-1,2,3-benzothiadiazol-6-yl)amino]-5,6,7,8-tetrahydro[1]benzothieno[2,3-d]pyrimidin-7-yl}methanone], the IC50 worked out at 7.6 nM. In the case of `COc1cc2nnsc2cc1Nc1ncnc2sc3c(c12)CC[C@H](C(=O)N1CCC(N(C)CCN(C)C)CC1)C3` [Example 48, (4-{[2-(dimethylamino)ethyl](methyl)amino}piperidin-1-yl){(7S)-4-[(5-methoxy-1,2,3-benzothiadiazol-6-yl)amino]-5,6,7,8-tetrahydro[1]benzothieno[2,3-d]pyrimidin-7-yl}methanone], the IC50 is 2 nM. For the compound `COc1cc2nnsc2cc1Nc1ncnc2sc3c(c12)CC[C@H](C(=O)N1CCN(CCN(C)C)CC1)C3` [Example 49, {4-[2-(Dimethylamino)ethyl]piperazin-1-yl}{(7S)-4-[(5-methoxy-1,2,3-benzothiadiazol-6-yl)amino]-5,6,7,8-tetrahydro[1]benzothieno[2,3-d]pyrimidin-7-yl}methanone], the IC50 worked out at 1.7 nM. Next, `COc1cc2nnsc2cc1Nc1ncnc2sc3c(c12)CC[C@H](C(=O)N1CCN(C)CC1)C3` [Example 50, {(7S)-4-[(5-Methoxy-1,2,3-benzothiadiazol-6-yl)amino]-5,6,7,8-tetrahydro[1]benzothieno[2,3-d]pyrimidin-7-yl}(4-methylpiperazin-1-yl)methanone]: 11 nM; `COc1cc2nnsc2cc1Nc1ncnc2sc3c(c12)CC[C@H](C(=O)N1CC[C@H](N(C)C)C1)C3` [Example 51, [(3S)-3-(Dimethylamino)pyrrolidin-1-yl]{(7S)-4-[(5-methoxy-1,2,3-benzothiadiazol-6-yl)amino]-5,6,7,8-tetrahydro[1]benzothieno[2,3-d]pyrimidin-7-yl}methanone]: 3.3 nM; `COc1cc2nnsc2cc1Nc1ncnc2sc3c(c12)CC[C@H](C(=O)N1CC[C@@H](N(C)C)C1)C3` [Example 52, [(3R)-3-(Dimethylamino)pyrrolidin-1-yl]{(7S)-4-[(5-methoxy-1,2,3-benzothiadiazol-6-yl)amino]-5,6,7,8-tetrahydro[1]benzothieno[2,3-d]pyrimidin-7-yl}methanone]: 2.1 nM. To `COc1cc2nnsc2cc1Nc1ncnc2sc3c(c12)CC[C@H](C(=O)N1C[C@@H]2C[C@H]1CN2C)C3` [Example 53, {(7S)-4-[(5-Methoxy-1,2,3-benzothiadiazol-6-yl)amino]-5,6,7,8-tetrahydro[1]benzothieno[2,3-d]pyrimidin-7-yl}[(1S,4S)-5-methyl-2,5-diazabicyclo[2.2.1]hept-2-yl]methanone] belongs 3.8 nM. Turning to `COc1cc2nnsc2cc1Nc1ncnc2sc3c(c12)CC[C@H](C(=O)N1CC(N2CCCCC2)C1)C3` [Example 54, {(7S)-4-[(5-Methoxy-1,2,3-benzothiadiazol-6-yl)amino]-5,6,7,8-tetrahydro[1]benzothieno[2,3-d]pyrimidin-7-yl}[3-(piperidin-1-yl)azetidin-1-yl]methanone], the IC50 came to 9.2 nM.
